Calls of active or inactive are those of the source. The calls are words filed in the database; no cut-off is given here.
How the values were obtained:
[1] = Plasma stability in dog assessed as epimerization at 1 uM measured upto 3 hrs by LC-MS/MS analysis; type: ADME, cell-free, Canis lupus familiaris
[2] = molecular target: T1, Nuclear receptor subfamily 1 group I member 2 (Homo sapiens, UniProt O75469); assay: Activation of PXR (unknown origin); type: toxicity
T1 sequence (O75469 whole entry): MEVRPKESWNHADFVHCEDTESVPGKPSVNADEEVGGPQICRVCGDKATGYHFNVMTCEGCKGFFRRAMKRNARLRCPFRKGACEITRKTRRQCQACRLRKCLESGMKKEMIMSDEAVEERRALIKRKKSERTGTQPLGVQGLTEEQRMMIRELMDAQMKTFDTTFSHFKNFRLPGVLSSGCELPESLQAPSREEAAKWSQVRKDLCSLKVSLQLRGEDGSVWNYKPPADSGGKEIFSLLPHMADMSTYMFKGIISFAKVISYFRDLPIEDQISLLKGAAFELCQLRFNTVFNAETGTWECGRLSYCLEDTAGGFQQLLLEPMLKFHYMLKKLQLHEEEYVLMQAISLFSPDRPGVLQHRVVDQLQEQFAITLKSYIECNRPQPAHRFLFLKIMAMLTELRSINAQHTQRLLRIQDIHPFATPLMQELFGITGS

[3] = Plasma protein binding in human assessed as unbound fraction at 1 uM; type: ADME, cell-free
CYP3A [4] = molecular target: T2, CYP3A (Homo sapiens, UniProt P08684+P20815+P24462+Q9HB55); assay: Reversible inhibition of CYP3A in human liver microsomes incubated for 5 mins in presence of NADPH-generating system by LC-MS/MS analysis; type: ADME, Microsome
[5] = Volume of distribution at steady state in dog by measuring compound and its epimer at 3 mg/kg, po or 1 mg/kg, iv measured upto 24 hrs by LC-MS analysis; type: ADME, organism-based, Canis lupus familiaris; conditions: in vivo
Cytochrome P450 2D6 = Cytochrome P450 2D6 (Homo sapiens, UniProt P10635); assay: Reversible inhibition of CYP2D6 in human liver microsomes using dextromethorphan as substrate incubated for 5 mins in presence of NADPH-generating system by LC-MS/MS analysis; type: ADME, Microsome
Cytochrome P450 2D6, sequence (P10635 whole entry): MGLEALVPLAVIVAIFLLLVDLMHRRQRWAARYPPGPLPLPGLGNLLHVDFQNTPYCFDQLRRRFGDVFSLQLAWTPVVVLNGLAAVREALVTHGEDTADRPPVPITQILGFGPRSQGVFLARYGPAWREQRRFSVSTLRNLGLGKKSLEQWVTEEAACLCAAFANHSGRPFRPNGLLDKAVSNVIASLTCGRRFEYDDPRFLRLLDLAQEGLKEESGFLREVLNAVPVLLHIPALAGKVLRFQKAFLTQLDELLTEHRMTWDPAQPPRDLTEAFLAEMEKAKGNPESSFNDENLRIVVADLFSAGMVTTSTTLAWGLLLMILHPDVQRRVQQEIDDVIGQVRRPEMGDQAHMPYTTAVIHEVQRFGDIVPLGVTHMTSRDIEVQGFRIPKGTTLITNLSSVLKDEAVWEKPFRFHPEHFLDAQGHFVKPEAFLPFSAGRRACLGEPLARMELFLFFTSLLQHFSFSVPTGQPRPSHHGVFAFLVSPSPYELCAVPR

CYP3A [6] = molecular target: T2, CYP3A; assay: Time dependent inhibition of CYP3A in human liver microsomes assessed as inhibition constant; type: ADME, Microsome
[7] = MRT in dog at 3 mg/kg, po or 1 mg/kg, iv measured upto 24 hrs by LC-MS analysis; type: ADME, organism-based, Canis lupus familiaris; conditions: in vivo
[8] = Plasma protein binding in dog assessed as unbound fraction at 1 uM; type: ADME, cell-free, Canis lupus familiaris
SARS-CoV-2 [9] = assay: Antiviral activity against SARS CoV-2 USA-WA1/2020 infected in B6.Cg-Tg(K18-ACE2)2Prlmn/J mouse assessed as fold reduction in viral load in lung at 500 mg/kg, po bid measured on day 4 post inoculation; type: functional, Severe acute respiratory syndrome coronavirus 2; conditions: time 4 day
[10] = Plasma stability in rat assessed as epimerization at 1 uM measured upto 3 hrs by LC-MS/MS analysis; type: ADME, cell-free
SARS-CoV-2 [11] = assay: Antiviral activity against SARS-CoV-2 Delta B.1.617 AY-2 infected in human A549-hACE2-TMPRSS2 cells assessed as inhibition of virus induced cytopathic effect incubated for 72 hrs by celltiter glo assay; type: functional, organism-based; conditions: Severe acute respiratory syndrome coronavirus 2, Delta B.1.617 AY-2, A549-hACE2-TMPRSS2, 72 h
[12] = Oral bioavailability in rat at 3 mg/kg measured upto 24 hrs by LC-MS analysis; type: ADME, organism-based; conditions: in vivo
[13] = molecular target: T3, PXR (nuclear receptor subfamily 1 group I member 2) (Homo sapiens, UniProt O75469); assay: Activation of PXR (unknown origin) assessed as maximal activation at 30 uM relative to control; type: toxicity; conditions: read-out: Activity
T3 sequence (O75469 whole entry): T1 sequence (O75469 whole entry)

SARS-CoV-2 [14] = assay: Antiviral activity against ancestral SARS-CoV-2 WA1/2020 infected in human A549-hACE2-TMPRSS2 cells assessed as inhibition of virus induced cytopathic effect incubated for 72 hrs by celltiter glo assay; type: functional, organism-based; conditions: Severe acute respiratory syndrome coronavirus 2, WA1/2020, A549-hACE2-TMPRSS2, 72 h
Cytochrome P450 1A2 = molecular target: T4, Cytochrome P450 1A2 (Homo sapiens, UniProt P05177); assay: Induction of CYP1A2 in human hepatocytes assessed as increase in CYP1A2 mRNA level at 20 uM measured after 48 hrs by PCR analysis relative to control; type: ADME, cell-based, Hepatocyte
T4 sequence (P05177 whole entry): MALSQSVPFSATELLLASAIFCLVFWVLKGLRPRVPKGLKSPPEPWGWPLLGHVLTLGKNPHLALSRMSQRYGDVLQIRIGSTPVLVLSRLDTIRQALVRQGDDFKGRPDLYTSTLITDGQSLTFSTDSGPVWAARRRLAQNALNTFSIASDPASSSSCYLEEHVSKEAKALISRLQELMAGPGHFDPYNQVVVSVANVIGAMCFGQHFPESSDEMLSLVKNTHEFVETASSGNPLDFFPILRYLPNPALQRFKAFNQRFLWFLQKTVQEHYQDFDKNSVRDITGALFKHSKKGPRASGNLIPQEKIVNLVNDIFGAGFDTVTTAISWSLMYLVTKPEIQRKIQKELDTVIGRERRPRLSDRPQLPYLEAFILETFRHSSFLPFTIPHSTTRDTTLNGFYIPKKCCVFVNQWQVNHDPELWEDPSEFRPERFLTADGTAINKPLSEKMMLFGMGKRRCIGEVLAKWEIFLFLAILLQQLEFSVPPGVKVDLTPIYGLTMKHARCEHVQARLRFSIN

[15] = Plasma stability in human assessed as epimerization at 1 uM measured upto 3 hrs by LC-MS/MS analysis; type: ADME, cell-free
SARS-CoV-2 [16] = assay: Antiviral activity against SARS CoV-2 USA-WA1/2020 infected in B6.Cg-Tg(K18-ACE2)2Prlmn/J mouse assessed as protection against body weight loss at 100 to 500 mg/kg, po bid measured daily for 4 days post inoculation; type: functional, organism-based; conditions: Severe acute respiratory syndrome coronavirus 2, dose 100-500 mg/kg, time 4.0 day
[17] = Volume of distribution at steady state in rat by measuring compound and its epimer at 3 mg/kg, po or 1 mg/kg, iv measured upto 24 hrs by LC-MS analysis; type: ADME, organism-based; conditions: in vivo
[18] = Lipophilicity, logD of compound at pH 8 by HPLC analysis; type: physicochemical; conditions: buffer
SARS-CoV-2 [19] = assay: Antiviral activity against SARS CoV-2 USA-WA1/2020 infected in po dosed B6.Cg-Tg(K18-ACE2)2Prlmn/J mouse assessed as reduction in viral load in lung administered orally twice daily and measured on day 4 post inoculation; type: functional, organism-based; conditions: Severe acute respiratory syndrome coronavirus 2, dose 100-500 mg/kg, time 4.0 day

SMILES: CNC(=O)C(=O)[C@H](CCC(C)(F)F)NC(=O)[C@@H]1[C@H]2CCC[C@H]2CN1C(=O)[C@@H](NC(=O)OC)C(C)(C)C
- Stability [1]: Unstable
- EC50 [2]: > 30 µM
- fraction unbound at 1 µM [3]: 0.27
- IC50 at 5 min (CYP3A [4]): 118 µM
- Vdss [5]: 0.4 L/kg
- IC50 (Cytochrome P450 2D6): > 200 µM
- Ki (CYP3A [6]): 110 µM
- MRT [7]: 2.5 h
- fraction unbound at 1 µM [8]: 0.09
- fold change (FC) (SARS-CoV-2 [9]): 5
- Stability [10]: Unstable
- IC50 (SARS-CoV-2 [11]): 0.351 µM
- bioavailability [12]: 65%
- Emax at 30 µM [13]: 29%
- IC50 (SARS-CoV-2 [14]): 0.444 µM
- Activity (Cytochrome P450 1A2): < 1%
- Stability [15]: Unstable
- Activity (SARS-CoV-2 [16]): Active
- Vdss [17]: 2.8 L/kg
- logD [18]: 2.49
- Activity (SARS-CoV-2 [19]): Dose-Dependent Effect
